Read-outs that look alike come from different tables or passages of the source.

In one experiment the target is T1, human recombinant HDAC1 (Homo sapiens, UniProt Q13547).
T1 construct: purchased Enzo Life Science, Inc. BML-SE456
In words: HDAC1 enzyme activity inhibition (HDAC Fluorimetric Drug Discovery Kit). It is filed as biochemical. Particulars: read-out: HDAC1. In short, it runs like this:
(§1)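 Enzyme at 0.3 µg per well was reacted with 10 μM fluorogenic substrate in presence of 5-fold diluted compound, 30° C for 60 min.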

The target of the next experiment is T2, human recombinant HDAC6 (Homo sapiens, UniProt Q9UBN7).
T2 construct: purchased Calbiochem Inc. 382180
T2 sequence (Q9UBN7 1-1215): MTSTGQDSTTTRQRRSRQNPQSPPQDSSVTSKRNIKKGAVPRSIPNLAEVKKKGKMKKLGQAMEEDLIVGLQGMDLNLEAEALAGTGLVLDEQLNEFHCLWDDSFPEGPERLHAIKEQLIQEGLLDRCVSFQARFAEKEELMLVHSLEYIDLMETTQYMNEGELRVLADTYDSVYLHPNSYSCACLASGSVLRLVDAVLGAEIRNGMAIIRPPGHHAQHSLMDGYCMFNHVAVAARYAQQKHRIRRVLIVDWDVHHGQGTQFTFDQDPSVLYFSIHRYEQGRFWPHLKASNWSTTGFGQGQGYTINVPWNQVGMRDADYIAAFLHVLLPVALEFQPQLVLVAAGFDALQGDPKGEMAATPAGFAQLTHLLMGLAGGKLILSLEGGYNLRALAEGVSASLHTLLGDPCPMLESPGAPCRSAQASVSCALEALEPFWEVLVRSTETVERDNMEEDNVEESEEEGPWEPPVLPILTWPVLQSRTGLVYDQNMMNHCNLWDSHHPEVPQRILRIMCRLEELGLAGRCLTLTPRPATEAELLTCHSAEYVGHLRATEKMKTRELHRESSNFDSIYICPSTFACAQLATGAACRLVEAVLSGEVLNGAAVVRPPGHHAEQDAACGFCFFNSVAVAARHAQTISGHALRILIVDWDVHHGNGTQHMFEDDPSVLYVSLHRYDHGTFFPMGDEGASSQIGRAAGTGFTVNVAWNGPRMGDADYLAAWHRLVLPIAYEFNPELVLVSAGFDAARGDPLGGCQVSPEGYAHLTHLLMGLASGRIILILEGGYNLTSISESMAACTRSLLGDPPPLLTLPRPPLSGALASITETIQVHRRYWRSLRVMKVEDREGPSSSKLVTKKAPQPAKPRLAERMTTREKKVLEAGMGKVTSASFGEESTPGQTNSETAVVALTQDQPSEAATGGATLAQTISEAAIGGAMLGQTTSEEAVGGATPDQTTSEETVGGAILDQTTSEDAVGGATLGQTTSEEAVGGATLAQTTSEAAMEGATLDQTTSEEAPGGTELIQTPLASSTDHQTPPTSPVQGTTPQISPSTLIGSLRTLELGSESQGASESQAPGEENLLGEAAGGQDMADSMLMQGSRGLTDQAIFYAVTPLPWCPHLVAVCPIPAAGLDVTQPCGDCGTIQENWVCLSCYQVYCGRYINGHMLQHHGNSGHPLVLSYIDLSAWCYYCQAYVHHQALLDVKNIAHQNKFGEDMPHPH
As to the kind of experiment: HDAC6 enzyme activity inhibition (HDAC Fluorimetric Drug Discovery Kit). It is filed as biochemical. Put shortly:
as §1

Where [1] appears, read: human recombinant HDAC1, IC50 calculated with GraphPad Prism.
[2] abbreviates: human recombinant HDAC6, IC50 calculated with GraphPad Prism.
Setting [3] is: human recombinant HDAC1, Fluor de Lys substrate, 30° C. 60 minutes.
Setting [4] is: human recombinant HDAC6, same protocol as HDAC1.

T1 sequence (Q13547 whole entry): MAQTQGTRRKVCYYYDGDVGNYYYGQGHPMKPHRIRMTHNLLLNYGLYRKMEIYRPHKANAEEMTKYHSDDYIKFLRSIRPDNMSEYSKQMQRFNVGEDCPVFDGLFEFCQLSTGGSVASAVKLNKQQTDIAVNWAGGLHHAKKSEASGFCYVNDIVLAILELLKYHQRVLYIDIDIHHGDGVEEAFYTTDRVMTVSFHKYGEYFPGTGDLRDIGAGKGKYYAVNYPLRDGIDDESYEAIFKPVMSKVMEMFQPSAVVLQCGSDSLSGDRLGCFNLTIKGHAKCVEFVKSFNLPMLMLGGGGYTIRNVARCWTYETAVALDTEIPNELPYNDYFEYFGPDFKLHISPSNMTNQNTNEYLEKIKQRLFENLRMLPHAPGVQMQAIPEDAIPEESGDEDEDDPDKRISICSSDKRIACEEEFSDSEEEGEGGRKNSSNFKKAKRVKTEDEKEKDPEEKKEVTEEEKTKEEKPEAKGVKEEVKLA

As to `FC(F)c1nnc(-c2ccc(Cn3cc(CCc4cn5ccccc5n4)nn3)nc2)o1` [Compound 3822, 2-(difluoromethyl)-5-(6-((4-(2-(imidazo[1,2-a]pyridin-2-yl)ethyl)-1H-1,2,3-triazol-1-yl)methyl)pyridin-3-yl)-1,3,4-oxadiazole], the results for the IC50 on human recombinant HDAC1 (setting [1]) and at human recombinant HDAC6 (setting [2]) were over 50000 nM and 205 nM, respectively. The “HDAC6 selectivity (fold)” value at human recombinant HDAC6 (HDAC1 IC50 / HDAC6 IC50) is recorded as 244 fold.

Consider `Fc1cc(-c2nnc(C(F)F)o2)ccc1Cn1cc(-c2cccc(CN3CC(F)C3)c2)nn1` [Compound 4403, 2-(difluoromethyl)-5-(3-fluoro-4-((4-(3-((3-fluoroazetidin-1-yl)methyl)phenyl)-1H-1,2,3-triazol-1-yl)methyl)phenyl)-1,3,4-oxadiazole], for which the IC50 was over 50000 nM on human recombinant HDAC1 (setting [1]) and 41.2 nM at human recombinant HDAC6 (setting [2]). In addition, the “HDAC6 selectivity (fold)” value at human recombinant HDAC6 (HDAC1 IC50 / HDAC6 IC50) was 1213 fold.

`Fc1cc(-c2nnc(C(F)F)o2)ccc1Cn1cc(-c2ccc(CNC3COC3)cc2)nn1` [Compound 4469, N-(4-(1-(4-(5-(difluoromethyl)-1,3,4-oxadiazol-2-yl)-2-fluorobenzyl)-1H-1,2,3-triazol-4-yl)benzyl)oxetan-3-amine]: the IC50 at human recombinant HDAC1 (setting [1]) was over 50000 nM; on human recombinant HDAC6 (setting [2]), 59 nM. For the same compound, the “HDAC6 selectivity (fold)” value at human recombinant HDAC6 (HDAC1 IC50 / HDAC6 IC50) is 847 fold.

As for `CC(=O)N1CCC[C@H]1c1cn(Cc2ccc(-c3nnc(C(F)F)o3)cn2)nn1` [Compound 4029, (S)-1-(2-(1-((5-(5-(difluoromethyl)-1,3,4-oxadiazol-2-yl)pyridin-2-yl)methyl)-1H-1,2,3-triazol-4-yl)pyrrolidin-1-yl)ethan-1-one], the IC50 on human recombinant HDAC1 (setting [1]) was over 50000 nM; on human recombinant HDAC6 (setting [2]), 208 nM. Moreover, on human recombinant HDAC6 (HDAC1 IC50 / HDAC6 IC50), the “HDAC6 selectivity (fold)” value is listed as 239 fold.

Take `Fc1cc(-c2nnc(C(F)F)o2)cnc1Cn1cc(-c2cccc(C3CCN(C4COC4)CC3)c2)nn1` [Compound 18871, 2-(difluoromethyl)-5-(5-fluoro-6-((4-(3-(1-(oxetan-3-yl)piperidin-4-yl)phenyl)-1H-1,2,3-triazol-1-yl)methyl)pyridin-3-yl)-1,3,4-oxadiazole]: the IC50 is over 50000 nM at human recombinant HDAC1 (setting [3]) and 74 nM on human recombinant HDAC6 (setting [4]). The “HDAC6 selectivity (fold)” value on human recombinant HDAC6 (HDAC6 over HDAC1) is listed as 675 fold.

As to `COC(=O)N1CC(c2cn(Cc3ccc(-c4nnc(C(F)F)o4)cn3)nn2)C1` [Compound 3959, Methyl 3-(1-((5-(5-(difluoromethyl)-1,3,4-oxadiazol-2-yl)pyridin-2-yl)methyl)-1H-1,2,3-triazol-4-yl)azetidin-1-carboxylate], the figures for the IC50 at human recombinant HDAC1 (setting [1]) and on human recombinant HDAC6 (setting [2]) were over 50000 nM and 239 nM, respectively. For the same compound, the “HDAC6 selectivity (fold)” value at human recombinant HDAC6 (HDAC1 IC50 / HDAC6 IC50) worked out at 209 fold.

On to `FC(F)c1nnc(-c2ccc(Cn3cc(-c4ccc(CN5CCCC5)cc4)nn3)nc2)o1` [Compound 4560, 2-(difluoromethyl)-5-(6-((4-(4-(pyrrolidin-1-ylmethyl)phenyl)-1H-1,2,3-triazol-1-yl)methyl)pyridin-3-yl)-1,3,4-oxadiazole], for which the figures for the IC50 at human recombinant HDAC1 (setting [3]) and at human recombinant HDAC6 (setting [4]) were over 50000 nM and 10.7 nM, respectively. Also, on human recombinant HDAC6 (HDAC6 over HDAC1), the “HDAC6 selectivity (fold)” value came out at 4672 fold.

With `CN1CCN(Cc2ccccc2-c2cn(Cc3ccc(-c4nnc(C(F)F)o4)cc3F)nn2)CC1` [Compound 4587, 2-(difluoromethyl)-5-(3-fluoro-4-((4-(2-((4-methylpiperazin-1-yl)methyl)phenyl)-1H-1,2,3-triazol-1-yl)methyl)phenyl)-1,3,4-oxadiazole], the results for the IC50 at human recombinant HDAC1 (setting [3]) and on human recombinant HDAC6 (setting [4]) were over 50000 nM and 182 nM, respectively. Further, on human recombinant HDAC6 (HDAC6 over HDAC1), the “HDAC6 selectivity (fold)” value is recorded as 274 fold.

With `C[C@@H]1CN(c2cccc(-c3cn(Cc4ccc(-c5nnc(C(F)F)o5)cc4)nn3)c2)C[C@H](C)N1` [Compound 4440, 2-(difluoromethyl)-5-(4-((4-(3-((3R,5S)-3,5-dimethylpiperazin-1-yl)phenyl)-1H-1,2,3-triazol-1-yl)methyl)phenyl)-1,3,4-oxadiazole], the results for the IC50 at human recombinant HDAC1 (setting [1]) and at human recombinant HDAC6 (setting [2]) were over 50000 nM and 30.2 nM, respectively. Moreover, on human recombinant HDAC6 (HDAC1 IC50 / HDAC6 IC50), the “HDAC6 selectivity (fold)” value worked out at 1655 fold.

Turning to `Fc1cc(-c2nnc(C(F)F)o2)ccc1Cn1cc(-c2ccc3c(c2)CCN(C2CN(C4COC4)C2)C3)nn1` [Compound 4395, 2-(difluoromethyl)-5-(3-fluoro-4-((4-(2-(1-(oxetan-3-yl)azetidin-3-yl)-1,2,3,4-tetrahydroisoquinolin-6-yl)-1H-1,2,3-triazol-1-yl)methyl)phenyl)-1,3,4-oxadiazole], the IC50 was over 50000 nM on human recombinant HDAC1 (setting [1]) and 48.8 nM at human recombinant HDAC6 (setting [2]). For the same compound, the “HDAC6 selectivity (fold)” value at human recombinant HDAC6 (HDAC1 IC50 / HDAC6 IC50) worked out at 1024 fold.

Turning to `FC(F)c1nnc(-c2ccc(Cn3cc(-c4ccc(CN5CCCC5)cc4)nn3)cc2)o1` [Compound 4550, 2-(difluoromethyl)-5-(4-((4-(4-(pyrrolidin-1-ylmethyl)phenyl)-1H-1,2,3-triazol-1-yl)methyl)phenyl)-1,3,4-oxadiazole], the IC50 at human recombinant HDAC1 (setting [3]) was over 50000 nM; on human recombinant HDAC6 (setting [4]), 18.1 nM. Further, at human recombinant HDAC6 (HDAC6 over HDAC1), the “HDAC6 selectivity (fold)” value was determined as 2762 fold.

Regarding `Fc1ccc(N2CCN(C3COC3)CC2)cc1-c1cn(Cc2ccc(-c3nnc(C(F)F)o3)cc2)nn1` [Compound 4455, 2-(difluoromethyl)-5-(4-((4-(2-fluoro-5-(4-(oxetan-3-yl)piperazin-1-yl)phenyl)-1H-1,2,3-triazol-1-yl)methyl)phenyl)-1,3,4-oxadiazole], the results for the IC50 on human recombinant HDAC1 (setting [1]) and at human recombinant HDAC6 (setting [2]) were over 50000 nM and 96.1 nM, respectively. For the same compound, the “HDAC6 selectivity (fold)” value at human recombinant HDAC6 (HDAC1 IC50 / HDAC6 IC50) stood at 520 fold.

As for `FC(F)c1nnc(-c2ccc(Cn3cc(-c4cccc(CN5CCCC5)c4)nn3)nc2)o1` [Compound 3966, 2-(difluoromethyl)-5-(6-((4-(3-(pyrrolidin-1-ylmethyl)phenyl)-1H-1,2,3-triazol-1-yl)methyl)pyridin-3-yl)-1,3,4-oxadiazole], the IC50 at human recombinant HDAC1 (setting [1]) is over 50000 nM; at human recombinant HDAC6 (setting [2]), 29.5 nM. The “HDAC6 selectivity (fold)” value at human recombinant HDAC6 (HDAC1 IC50 / HDAC6 IC50) was determined as 1694 fold.

In the case of `FC(F)c1nnc(-c2ccc(Cn3cc(-c4ccncc4)nn3)nc2)o1` [Compound 3837, 2-(difluoromethyl)-5-(6-((4-(pyridin-4-yl)-1H-1,2,3-triazol-1-yl)methyl)pyridin-3-yl)-1,3,4-oxadiazole], the results for the IC50 on human recombinant HDAC1 (setting [1]) and at human recombinant HDAC6 (setting [2]) were over 50000 nM and 51.8 nM, respectively. In addition, at human recombinant HDAC6 (HDAC1 IC50 / HDAC6 IC50), the “HDAC6 selectivity (fold)” value stood at 965 fold.

As for `CN(C)CCC(=O)Nc1cccc(-c2cn(Cc3ccc(-c4nnc(C(F)F)o4)cc3F)nn2)c1` [Compound 4335], the values for the IC50 on human recombinant HDAC1 (setting [1]) and at human recombinant HDAC6 (setting [2]) were over 50000 nM and 62.7 nM, respectively. In addition, the “HDAC6 selectivity (fold)” value on human recombinant HDAC6 (HDAC1 IC50 / HDAC6 IC50) came out at 797 fold.

For the compound `Fc1cc(-c2nnc(C(F)F)o2)ccc1Cn1cc(-c2cncc(-c3cn[nH]c3)c2)nn1` [Compound 17058, 2-(4-((4-(5-(1H-pyrazol-4-yl)pyridin-3-yl)-1H-1,2,3-triazol-1-yl)methyl)-3-fluorophenyl)-5-(difluoromethyl)-1,3,4-oxadiazole], the figures for the IC50 at human recombinant HDAC1 (setting [3]) and on human recombinant HDAC6 (setting [4]) were over 50000 nM and 18 nM, respectively. Moreover, the “HDAC6 selectivity (fold)” value on human recombinant HDAC6 (HDAC6 over HDAC1) was 2777 fold.

Take `CCN1CCN(c2cc(-c3cn(Cc4ccc(-c5nnc(C(F)F)o5)cc4)nn3)ccc2F)CC1` [Compound 4420, 2-(difluoromethyl)-5-(4-((4-(3-(4-ethylpiperazin-1-yl)-4-fluorophenyl)-1H-1,2,3-triazol-1-yl)methyl)phenyl)-1,3,4-oxadiazole]: the IC50 was over 50000 nM on human recombinant HDAC1 (setting [1]) and 174 nM at human recombinant HDAC6 (setting [2]). For the same compound, the “HDAC6 selectivity (fold)” value at human recombinant HDAC6 (HDAC1 IC50 / HDAC6 IC50) turned out to be 287 fold.

In the case of `FC(F)c1nnc(-c2ccc(Cn3cc(C4CCCN(C5COC5)C4)nn3)nc2)o1` (stereo not drawn) [Compound 4003], the IC50 at human recombinant HDAC1 (setting [1]) is over 50000 nM; on human recombinant HDAC6 (setting [2]) it was 484 nM. For the same compound, the “HDAC6 selectivity (fold)” value at human recombinant HDAC6 (HDAC1 IC50 / HDAC6 IC50) is reported as 103 fold.

For `FC(F)c1nnc(-c2ccc(Cn3cc(-c4cccc(CN5CCC(F)(F)CC5)c4)nn3)nc2)o1` [Compound 4401, 2-(difluoromethyl)-5-(6-((4-(3-((4,4-difluoropiperidin-1-yl)methyl)phenyl)-1H-1,2,3-triazol-1-yl)methyl)pyridin-3-yl)-1,3,4-oxadiazole], the IC50 at human recombinant HDAC1 (setting [1]) is over 50000 nM; on human recombinant HDAC6 (setting [2]) it was 44.4 nM. In addition, on human recombinant HDAC6 (HDAC1 IC50 / HDAC6 IC50), the “HDAC6 selectivity (fold)” value is given as 1126 fold.

Source of the values: patent publication US20230257372A1 (CHONG KUN DANG PHARMACEUTICAL CORP., priority 2020, published 2023).
